Publication PMC5353710, “Structural insights into the γ-lactamase activity and substrate enantioselectivity of an isochorismatase-like hydrolase from Microbacterium hydrocarbonoxydans” (Scientific Reports, 2017)

Key:
MhIHL (Mh33H4-5540) [1] = biological target: T1, MhIHL (Mh33H4-5540) (Microbacterium hydrocarbonoxydans, UniProt A0A0K0XHU0, C111A); conditions: inactive variant; crystal soaked in 250 mM ligand for 1.5 h; active site
MhIHL (Mh33H4-5540) [2] = biological target: T1, MhIHL (Mh33H4-5540); conditions: inactive variant; crystal soaked in 500 mM ligand for 10 min; active site

| SMILES | X-ray crystal structure, 1.99 Å (MhIHL (Mh33H4-5540) [1]) | X-ray crystal structure, 1.79 Å (MhIHL (Mh33H4-5540) [2]) |
| --- | --- | --- |
| O=C1N[C@H]2C=C[C@@H]1C2 [(−)-γ-lactam, 2-Azabicyclo[2.2.1]hept-5-en-3-one] | The final crystals of MhIHL–(−)-γ-lactam complex were obtained by soaking the crystal |  |
| O=C1N[C@@H]2C=C[C@H]1C2 [(+)-γ-lactam, 2-Azabicyclo[2.2.1]hept-5-en-3-one] |  | The final MhIHL–(+)-γ-lactam complex crystals were obtained by soaking the crystal |
